Test results taken from US5559096A, “Pharmaceutical compositions against gastric disorders” (Applied Microbiology, Inc., priority 1991, dated 1996).
Positions of bridges follow the written chain, without caps; N, C: chain ends. Non-standard residues stand in square brackets, D forms with d. Primed or numbered codes have the meaning given here. No end group written: not given here. Dhb′ = not defined here; Abu = CC[C@H](N)C(=O)O; Dha = C=C(N)C(=O)O

Columns and labels:
[1] = system: H.pylori NCTC 11916; test: MIC by spiral plater, H.pylori NCTC 11916; type: cell-based, Helicobacter pylori; conditions: H.pylori NCTC 11916, human strain
Description: (§1) The Minimum Inhibitory Concentration (MIC) of bacteriocin antimicrobial agents against a human strains of H.pylori (H.pylori NCTC 11916 and NCTC 11637) were assessed using a spiral plater and automatic agar plate pourer, according to the method of Wallace A. S. and Corkill J. E. (J. Microbial. Methods, 10, 303-310, 1989). MIC values were calculated according to the equation for the Archimedes spiral.

[2] = system: H.pylori NCTC 11637; test: MIC by spiral plater, H.pylori NCTC 11637; type: cell-based, Helicobacter pylori; conditions: H.pylori NCTC 11637, human strain
Description: as §1

[3] = system: Helicobacter pylori; test: Kill time at 4 times the average MIC; type: cell-based; conditions: time taken to reduce microbe levels to <200 viable organisms; drug concentration 4 times the average MIC
Description: Kill time was calculated as the time taken to reduce microbe levels to <200 viable organisms using a drug concentration equal to 4 times the average MIC value for the test compound.

[4] = system: Helicobacter pylori; test: Kill time assay: effect of citrate on antimicrobial activity (microbe survival); type: cell-based; conditions: Citrate 10 mM; for Mean Counts CFU/ml 1 min: 1 min after inoculation; for Mean Counts CFU/ml 5 min: 5 min after inoculation; for Mean Counts CFU/ml 30 min: 30 min after inoculation
Description: A kill time assay was carried out to determine the effect of citrate on antimicrobial activity. Microbe survival was assessed after treatment with bacteriocin alone and bacteriocin plus citrate. The effect of citrate alone was also measured. Survival was measured at 1,5 and 30 minutes after inoculation. Activity is expressed as the mean number of counts of colony forming units (CFU) per ml.

[5] = Initial Inoculum 8.92 × 10^4, Ambicin N 300 ppm

Compound: Ambicin N: purified form of nisin made available by Applied Microbiology Inc. under the trade name AMBICIN N (I[Dhb′]AI[Dha]LC[Abu]PGCK[Abu]GALMGCNMK[Abu]A[Abu]CHCSIHV[Dha]K; thioether 8-11, 13-19, 23-26, 25-28, 3-7; UniProt P13068 24-57, looked up)
- MIC Value NCTC 11916 [1]: 50 to 300 µg/mL
- MIC Value NCTC 11637 [2]: 50 to 300 µg/mL
- Kill Time [3]: > 30
- Mean Counts CFU/ml 1 min [4, 5]: 6.31 × 10^4 CFU/ml
- Mean Counts CFU/ml 5 min [4, 5]: 5.71 × 10^4 CFU/ml
- Mean Counts CFU/ml 30 min [4, 5]: 4.72 × 10^4 CFU/ml

Compound: Gramicidin
- MIC Value NCTC 11916 [1]: 0.5 to 3.0 µg/mL
- MIC Value NCTC 11637 [2]: 1.0 to 3.5 µg/mL
- Kill Time [3]: > 30
- Mean Counts CFU/ml 1 min ([4]; Initial Inoculum 2.39 × 10^5): 7.69 × 10^3 CFU/ml
- Mean Counts CFU/ml 5 min ([4]; Initial Inoculum 2.39 × 10^5): 1.44 × 10^4 CFU/ml
- Mean Counts CFU/ml 30 min ([4]; Initial Inoculum 2.39 × 10^5): 1.35 × 10^4 CFU/ml

Compound: CC(C)C[C@@H]1NC(=O)[C@H](CCCN)NC(=O)[C@H](C(C)C)NC(=O)[C@H](Cc2ccc(O)cc2)N[C@@H](CCC(=O)O)C(=O)N[C@@H](CC(N)=O)C(=O)[C@@H](Cc2ccccc2)NC(=O)[C@H](Cc2ccccc2)NC(=O)[C@@H]2CCCN2C(=O)[C@@H](Cc2ccccc2)NC1=O [Tyrothricin]
- MIC Value NCTC 11916 [1]: 1.0 to 4.0 µg/mL
- MIC Value NCTC 11637 [2]: 1.0 to 5.0 µg/mL
- Kill Time [3]: < 1
- Mean Counts CFU/ml 1 min ([4]; Initial Inoculum 2.39 × 10^5): 2.55 × 10^4 CFU/ml
- Mean Counts CFU/ml 5 min ([4]; Initial Inoculum 2.39 × 10^5): 1.77 × 10^4 CFU/ml
- Mean Counts CFU/ml 30 min ([4]; Initial Inoculum 2.39 × 10^5): 1.78 × 10^4 CFU/ml

Compound: O=C(O)CC(O)(CC(=O)O)C(=O)O [Citrate]
- Mean Counts CFU/ml 1 min ([4]; Initial Inoculum 2.39 × 10^5): 1.59 × 10^4 CFU/ml
- Mean Counts CFU/ml 1 min [4, 5]: 7.98 × 10^4 CFU/ml
- Mean Counts CFU/ml 5 min ([4]; Initial Inoculum 2.39 × 10^5): 1.42 × 10^4 CFU/ml
- Mean Counts CFU/ml 5 min [4, 5]: 8.64 × 10^4 CFU/ml
- Mean Counts CFU/ml 30 min ([4]; Initial Inoculum 2.39 × 10^5): 1.95 × 10^4 CFU/ml
- Mean Counts CFU/ml 30 min [4, 5]: 6.92 × 10^4 CFU/ml
